Experiments:
bedstraw = assay: Test B pre/postemergence bedstraw; type: in vivo, Galium aparine; conditions: for Bedstraw plant response rating: scale 0 to 10 (0 no effect, 10 complete control); for Plant response rating, Bedstraw: scale of 0 to 10 where 0 is no effect and 10 is complete control
Summary of the method: (§1)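 Test chemicals in a non-phytotoxic solvent mixture with surfactant were sprayed preemergence onto planted seeds and postemergence onto plants 2 to 18 cm tall (1- to 4-leaf stage). After twelve to sixteen days in a greenhouse, injury was visually rated against untreated controls from 0 (no effect) to 10 (complete control).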

sugar beet = assay: Test B pre/postemergence sugar beet; type: in vivo, Beta vulgaris; conditions: for Plant response rating, Sugarbeets: scale of 0 to 10 where 0 is no effect and 10 is complete control
Summary of the method: as §1

velvetleaf = assay: Test B pre/postemergence velvetleaf; type: in vivo, Abutilon theophrasti; conditions: for Plant response rating, Velvetleaf: scale of 0 to 10 where 0 is no effect and 10 is complete control
Summary of the method: as §1

surinam grass = assay: Test B pre/postemergence surinam grass; type: in vivo, Brachiaria decumbens; conditions: for Plant response rating, B. signalgrass: scale of 0 to 10 where 0 is no effect and 10 is complete control
Summary of the method: as §1

giant foxtail = assay: Test B pre/postemergence giant foxtail; type: in vivo, Setaria faberii; conditions: for Plant response rating, Giant foxtail: scale of 0 to 10 where 0 is no effect and 10 is complete control
Summary of the method: as §1

cocklebur = assay: Test B pre/postemergence cocklebur; type: in vivo, Xanthium strumarium; conditions: for Plant response rating, Cocklebur: scale of 0 to 10 where 0 is no effect and 10 is complete control
Summary of the method: as §1

wild oat = assay: Test B pre/postemergence wild oat; type: in vivo, Avena fatua; conditions: for Plant response rating, Wild oats: scale of 0 to 10 where 0 is no effect and 10 is complete control
Summary of the method: as §1

morningglory = assay: Test B pre/postemergence morningglory; type: in vivo, Ipomoea hederacea; conditions: for Plant response rating, Morningglory: scale of 0 to 10 where 0 is no effect and 10 is complete control
Summary of the method: as §1

rape = assay: Test B pre/postemergence rape; type: in vivo, Brassica napus; conditions: for Plant response rating, Rape: scale of 0 to 10 where 0 is no effect and 10 is complete control
Summary of the method: as §1

blackgrass = assay: Test B pre/postemergence blackgrass; type: in vivo, Alopecurus myosuroides; conditions: for Plant response rating, Blackgrass: scale of 0 to 10 where 0 is no effect and 10 is complete control
Summary of the method: as §1

wheat = assay: Test B pre/postemergence wheat; type: in vivo, Triticum aestivum; conditions: for Plant response rating, Wheat: scale of 0 to 10 where 0 is no effect and 10 is complete control
Summary of the method: as §1

corn = assay: Test B pre/postemergence corn; type: in vivo, Zea mays; conditions: for Plant response rating, Corn: scale of 0 to 10 where 0 is no effect and 10 is complete control
Summary of the method: as §1

soybean = assay: Test B pre/postemergence soybean; type: in vivo, Glycine max; conditions: for Plant response rating, Soybean: scale of 0 to 10 where 0 is no effect and 10 is complete control
Summary of the method: as §1

crabgrass = assay: Test B pre/postemergence crabgrass; type: in vivo, Digitaria sanguinalis; conditions: for Plant response rating, Crabgrass: scale of 0 to 10 where 0 is no effect and 10 is complete control
Summary of the method: as §1

purple nutsedge = assay: Test B pre/postemergence purple nutsedge; type: in vivo, Cyperus rotundus
Summary of the method: as §1

pigweed = assay: Test B pre/postemergence pigweed; type: in vivo, Amaranthus retroflexus; conditions: for Plant response rating, Redroot pigweed: scale of 0 to 10 where 0 is no effect and 10 is complete control
Summary of the method: as §1

[1] = Postemergence, Rate 31 g/ha, visual rating, scale 0 to 10 (0 no effect, 10 complete control)
[2] = Postemergence, Rate 125 g/ha, scale 0 to 10, 0 is no effect, 10 is complete control
[3] = Postemergence, Rate 250 g/ha, scale 0 to 10
[4] = Preemergence, Rate 250 g/ha, scale 0 to 10, 0 is no effect, 10 is complete control
[5] = Rate 62 g/ha, Postemergence, scale 0 to 10 (0 no effect, 10 complete control)
[6] = Preemergence, Rate 31 g/ha, visual rating, scale 0 to 10 (0 no effect, 10 complete control)

In the case of `CC(C)N(C(=O)n1oc(=O)n(C(C)C(=O)N(C)C)c1=O)c1ccc(F)cc1F` (centres unmarked) [Compound 481], the “Bedstraw plant response rating” value (bedstraw; Preemergence, Rate 31 g/ha, visual rating) is reported as 0, the “Plant response rating, Bedstraw” value (bedstraw; Preemergence, Rate 62 g/ha) is reported as 0 and the “Plant response rating, Bedstraw” value (bedstraw; Preemergence, Rate 125 g/ha) is reported as 0. The “Bedstraw plant response rating” value (bedstraw; Rate 62 g/ha, Postemergence) was 0, the “Sugarbeets plant response rating” value (sugar beet; [1]) was 0 and the “Sugarbeets plant response rating” value (sugar beet; [2]) was 0. For the same molecule, the “Sugarbeets plant response rating” value (sugar beet; [3]) was 0, the “Plant response rating, Sugarbeets” value (sugar beet; Preemergence, Rate 62 g/ha) was 0 and the “Plant response rating, Sugarbeets” value (sugar beet; Preemergence, Rate 125 g/ha) was 0. For the same molecule, the “Sugarbeets plant response rating” value (sugar beet; [4]) was 2, the “Sugarbeets plant response rating” value (sugar beet; [5]) was 0 and the “Velvetleaf plant response rating” value (velvetleaf; [1]) was 0. The “Velvetleaf plant response rating” value (velvetleaf; [2]) was 0, the “Velvetleaf plant response rating” value (velvetleaf; [3]) was 0 and the “Plant response rating, Velvetleaf” value (velvetleaf; Preemergence, Rate 62 g/ha) was 0. For the same molecule, the “Plant response rating, Velvetleaf” value (velvetleaf; Preemergence, Rate 125 g/ha) was 0, the “Velvetleaf plant response rating” value (velvetleaf; [4]) was 0 and the “Velvetleaf plant response rating” value (velvetleaf; [5]) was 0. For the same molecule, the “B. signalgrass plant response rating” value (surinam grass; [1]) was 0, the “B. signalgrass plant response rating” value (surinam grass; [2]) was 0 and the “B. signalgrass plant response rating” value (surinam grass; Postemergence, Rate 250 g/ha, scale 0 to 10, 0 no effect, 10 complete control) was 6. The “B. signalgrass plant response rating” value (surinam grass; [6]) was 7, the “Plant response rating, B. signalgrass” value (surinam grass; Preemergence, Rate 62 g/ha) was 7 and the “Plant response rating, B. signalgrass” value (surinam grass; Preemergence, Rate 125 g/ha) was 9. The “B. signalgrass plant response rating” value (surinam grass; [4]) was 9, the “B. signalgrass plant response rating” value (surinam grass; [5]) was 0 and the “Giant foxtail plant response rating” value (giant foxtail; [1]) was 0. For the same molecule, the “Giant foxtail plant response rating” value (giant foxtail; [2]) was 2, the “Giant foxtail plant response rating” value (giant foxtail; [3]) was 8 and the “Giant foxtail plant response rating” value (giant foxtail; [6]) was 8. For the same molecule, the “Plant response rating, Giant foxtail” value (giant foxtail; Preemergence, Rate 62 g/ha) was 9, the “Plant response rating, Giant foxtail” value (giant foxtail; Preemergence, Rate 125 g/ha) was 9 and the “Giant foxtail plant response rating” value (giant foxtail; [4]) was 9. The “Giant foxtail plant response rating” value (giant foxtail; [5]) was 2, the “Cocklebur plant response rating” value (cocklebur; [1]) was 0 and the “Cocklebur plant response rating” value (cocklebur; [2]) was 0. For the same molecule, the “Cocklebur plant response rating” value (cocklebur; [3]) was 0, the “Cocklebur plant response rating” value (cocklebur; [6]) was 0 and the “Plant response rating, Cocklebur” value (cocklebur; Preemergence, Rate 62 g/ha) was 0. The “Plant response rating, Cocklebur” value (cocklebur; Preemergence, Rate 125 g/ha) was 0, the “Cocklebur plant response rating” value (cocklebur; [4]) was 0 and the “Cocklebur plant response rating” value (cocklebur; [5]) was 0. The “Wild oats plant response rating” value (wild oat; [1]) was 0, the “Wild oats plant response rating” value (wild oat; [2]) was 0 and the “Wild oats plant response rating” value (wild oat; [3]) was 0. The “Plant response rating, Wild oats” value (wild oat; Preemergence, Rate 62 g/ha) was 4, the “Plant response rating, Wild oats” value (wild oat; Preemergence, Rate 125 g/ha) was 6 and the “Wild oats plant response rating” value (wild oat; [4]) was 8. For the same molecule, the “Wild oats plant response rating” value (wild oat; [5]) was 0, the “Morningglory plant response rating” value (morningglory; [1]) was 0 and the “Morningglory plant response rating” value (morningglory; [2]) was 0. For the same molecule, the “Morningglory plant response rating” value (morningglory; [3]) was 2, the “Plant response rating, Morningglory” value (morningglory; Preemergence, Rate 62 g/ha) was 0 and the “Plant response rating, Morningglory” value (morningglory; Preemergence, Rate 125 g/ha) was 0. The “Morningglory plant response rating” value (morningglory; [4]) was 0, the “Morningglory plant response rating” value (morningglory; [5]) was 0 and the “Rape plant response rating” value (rape; [1]) was 0. For the same molecule, the “Rape plant response rating” value (rape; [2]) was 0, the “Rape plant response rating” value (rape; [3]) was 0 and the “Plant response rating, Rape” value (rape; Preemergence, Rate 62 g/ha) was 0. For the same molecule, the “Plant response rating, Rape” value (rape; Preemergence, Rate 125 g/ha) was 0, the “Rape plant response rating” value (rape; [4]) was 0 and the “Rape plant response rating” value (rape; [5]) was 0. For the same molecule, the “Blackgrass plant response rating” value (blackgrass; [1]) was 0, the “Blackgrass plant response rating” value (blackgrass; [2]) was 0 and the “Blackgrass plant response rating” value (blackgrass; [3]) was 2. For the same molecule, the “Blackgrass plant response rating” value (blackgrass; [6]) was 3, the “Plant response rating, Blackgrass” value (blackgrass; Preemergence, Rate 62 g/ha) was 6 and the “Plant response rating, Blackgrass” value (blackgrass; Preemergence, Rate 125 g/ha) was 6. The “Blackgrass plant response rating” value (blackgrass; [4]) was 10, the “Blackgrass plant response rating” value (blackgrass; [5]) was 0 and the “Wheat plant response rating” value (wheat; [1]) was 0. The “Wheat plant response rating” value (wheat; [2]) was 0, the “Wheat plant response rating” value (wheat; [3]) was 0 and the “Plant response rating, Wheat” value (wheat; Preemergence, Rate 62 g/ha) was 0. The “Plant response rating, Wheat” value (wheat; Preemergence, Rate 125 g/ha) was 3, the “Wheat plant response rating” value (wheat; [4]) was 2 and the “Wheat plant response rating” value (wheat; [5]) was 0. The “Corn plant response rating” value (corn; [1]) was 0, the “Corn plant response rating” value (corn; [2]) was 3 and the “Corn plant response rating” value (corn; [3]) was 3. The “Corn plant response rating” value (corn; [6]) was 0, the “Plant response rating, Corn” value (corn; Preemergence, Rate 62 g/ha) was 0 and the “Plant response rating, Corn” value (corn; Preemergence, Rate 125 g/ha) was 0. For the same molecule, the “Corn plant response rating” value (corn; [4]) was 0, the “Corn plant response rating” value (corn; [5]) was 0 and the “Soybean plant response rating” value (soybean; [1]) was 4. For the same molecule, the “Soybean plant response rating” value (soybean; [2]) was 4, the “Soybean plant response rating” value (soybean; [3]) was 4 and the “Plant response rating, Soybean” value (soybean; Preemergence, Rate 62 g/ha) was 0. The “Plant response rating, Soybean” value (soybean; Preemergence, Rate 125 g/ha) was 0, the “Soybean plant response rating” value (soybean; [4]) was 0 and the “Soybean plant response rating” value (soybean; [5]) was 4. The “Crabgrass plant response rating” value (crabgrass; [1]) was 0, the “Crabgrass plant response rating” value (crabgrass; [2]) was 2 and the “Crabgrass plant response rating” value (crabgrass; [3]) was 2. The “Crabgrass plant response rating” value (crabgrass; [6]) was 7, the “Plant response rating, Crabgrass” value (crabgrass; Preemergence, Rate 62 g/ha) was 7 and the “Plant response rating, Crabgrass” value (crabgrass; Preemergence, Rate 125 g/ha) was 8. For the same molecule, the “Crabgrass plant response rating” value (crabgrass; [4]) was 8, the “Crabgrass plant response rating” value (crabgrass; [5]) was 0 and the “Nutsedge plant response rating” value (purple nutsedge; [1]) was 0. For the same molecule, the “Nutsedge plant response rating” value (purple nutsedge; [3]) was 0, the “Plant response rating, Nutsedge” value (purple nutsedge; Preemergence, Rate 125 g/ha, scale of 0 to 10 where 0 is no effect and 10 is complete control) was 4 and the “Nutsedge plant response rating” value (purple nutsedge; [4]) was 6. The “Nutsedge plant response rating” value (purple nutsedge; [5]) was 0, the “Redroot pigweed plant response rating” value (pigweed; [1]) was 0 and the “Redroot pigweed plant response rating” value (pigweed; [2]) was 0. For the same molecule, the “Redroot pigweed plant response rating” value (pigweed; [3]) was 0, the “Plant response rating, Redroot pigweed” value (pigweed; Preemergence, Rate 62 g/ha) was 0 and the “Plant response rating, Redroot pigweed” value (pigweed; Preemergence, Rate 125 g/ha) was 0. The “Redroot pigweed plant response rating” value (pigweed; [4]) was 3 and the “Redroot pigweed plant response rating” value (pigweed; [5]) was 0.
